The experiment addresses T1, Am_SOD (recombinant Cu, Zn-superoxide dismutase) (Avicennia marina, UniProt Q9AXH2).
T1 construct: full-length 459 bp ORF in pET22b+ (NdeI/XhoI), 6xHis tag (printed as N-terminal); homodimer ~32-33 kDa, monomer ~16 kDa; no signal peptide found
T1 sequence (Q9AXH2 1-152): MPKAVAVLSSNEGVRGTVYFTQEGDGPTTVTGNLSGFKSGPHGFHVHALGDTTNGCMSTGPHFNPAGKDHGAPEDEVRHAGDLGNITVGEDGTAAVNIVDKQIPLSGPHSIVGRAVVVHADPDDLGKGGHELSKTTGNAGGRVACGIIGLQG
Description: riboflavin-NBT SOD inhibition assay, A560. Format: biochemical. The source says:
riboflavin-NBT SOD inhibition assay, A560 on Am_SOD (recombinant Cu, Zn-superoxide dismutase) | inhibited in a dose-dependent manner by sodium diethyldithiocarbamate trihydrate, and the IC50 was obtained at […]

On to `CCN(CC)C(=S)S` [DDC, sodium diethyldithiocarbamate trihydrate], for which the IC50 (as a rule, the point on the concentration scale where inhibition reaches its midpoint) amounted to 1500 µM.
